Assay [1] addresses T1, IRAK4 (Homo sapiens, UniProt Q9NWZ3).
T1 construct: purchased CARNA Bioscience 09-145
T1 sequence (Q9NWZ3 1-460): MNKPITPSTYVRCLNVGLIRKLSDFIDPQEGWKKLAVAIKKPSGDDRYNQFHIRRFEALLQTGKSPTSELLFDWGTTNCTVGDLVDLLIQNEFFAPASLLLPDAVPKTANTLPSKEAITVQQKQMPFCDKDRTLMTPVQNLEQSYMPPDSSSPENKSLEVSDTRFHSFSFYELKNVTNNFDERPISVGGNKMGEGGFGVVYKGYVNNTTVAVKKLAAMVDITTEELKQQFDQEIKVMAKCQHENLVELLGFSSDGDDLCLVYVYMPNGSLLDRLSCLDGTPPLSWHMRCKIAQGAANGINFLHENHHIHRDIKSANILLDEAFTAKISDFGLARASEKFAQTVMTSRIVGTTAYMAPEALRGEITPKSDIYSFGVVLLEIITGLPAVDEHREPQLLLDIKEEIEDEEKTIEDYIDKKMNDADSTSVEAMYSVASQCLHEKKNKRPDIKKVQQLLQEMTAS
In words: IRAK-4 activity inhibition assay (Caliper). In kind it is biochemical. As to conditions: 3.5 nM IRAK4, 37 μM ATP, 1.5 μM Peptide 8. As for the experimental part:
A 1× kinase base buffer was prepared from 50 mM HEPES, pH 7.5 and 0.0015% Brij-35. A stop buffer was prepared from 100 mM HEPES, pH 7.5, 0.015% Brij-35, 0.2% Coating Reagent #3, and 50 mM EDTA.
Test compound was diluted to 50× of the final desired highest inhibitor concentration in reaction by 100% DMSO. 100 ul of this compound dilution was transferred to a well in a 96-well plate.
Test compound was serially diluted by transferring 30 μl to 60 μl of 100% DMSO in the next well and so forth for a total of 10 concentrations. 100 μl of 100% DMSO was added to two empty wells for no compound control and no enzyme control in the same 96-well plate.
A new 96-well plate was marked as intermediate plate. 5 μl of compound serial dilution was transferred from source plate to the corresponding wells of the intermediate plate. 45 μl of 1× kinase base buffer (KB buffer) was added to each well of the intermediate plate. The intermediate plate was placed for 10 min on a shaker.
5 μl of each well was transferred from the 96-well intermediate plate to a 384-well plate in duplicates. For example, A1 of the 96-well plate is transferred to A1 and A2 of the 384-well plate. A2 of the 96-well plate is transferred to A3 and A4 of the 384-well plate, and so on.
IRAK4 and DTT in 1× kinase base buffer was added. The 2.5× enzyme mix contained 8.8 nM IRAK4 and 5 mM DTT.
Peptide 8, ATP, MgCl2 and MnCl2 were added in the 1× kinase base buffer. The 2.5× peptide mix contained 3.75 μM peptide 8, 92.5 μM ATP, 12.5 mM MgCl2 and 2.5 mM MnCl2.
Assay plate already contained 5 μl of compound in 10% DMSO. Added 10 μl of 2.5× enzyme solution to each well of the 384-well assay plate, except no enzyme control wells. The final concentration of IRAK4 in reaction was 3.5 nM. Added 10 μl of 1× kinase base buffer to no enzyme control wells in the assay plate. Incubated at room temperature for 10 min.
Added 10 μl of 2.5× peptide solution to each well of the 384-well assay plate. The final concentration of Peptide 8 and ATP was 1.5 μM and 37 μM, respectively. Incubated at 28° C. for 40 minutes. Added 25 μl of stop buffer to stop reaction. Collected data on Caliper.
Copied conversion % data from Caliper program. Converted conversion % values to percent inhibition values. Percent inhibition=(max−conversion %)/(max−min)*100, where “max” means the conversion % of DMSO control and “min” means the conversion % of no enzyme control.

The test system of assay [2] is THP-1 cells. The assay is described as follows: LPS-induced cytokine production assay, TNFα. In kind it is cell-based. As to conditions: Homo sapiens, 300 ng/mL LPS, 5 hours, read-out: TNF (5 h). As for the experimental part:
(§1) Provided compounds were also assayed in an LPS (Lipopolysacharide) or R848 (TLR-7 agonist) induced cytokine (e.g. TNFα and IL8) production assay in THP-1 cells, human peripheral blood mononuclear cells (hPBMC), and whole blood. The exemplary protocol for this assay in THP-1 cells was as follows below.
(§2) THP-1 cells from ATCC (TIB-202) were cultured in RPMI Medium 1640 (Invitrogen, Cat No. A10491-01), 10% fetal bovine serum (Invitrogen, Cat No. 10099141, Lot No. 8172882) containing 100 U/mL Penicillin, 100 μg/mL streptomycin (Invitrogen, Cat No. 15140-122), and 50 uM 2-Mercaptoethanol (Invitrogen, Cat No. 21985023). LPS-EK ultra pure (Invivogen, Cat No. tlrl-peklps) was used to induce IL8 and TNFα production, that is detected in the cell culture supernatant by IL8 HTRF kit (Cisbio, Cat No. 62IL8PEB) and TNFα HTRF kit (Cisbio, Cat No. 62TNFPEB), as per manufacturer instructions. Cells were cultured in 96 well assay plates at 100,000 cells per well, and compounds diluted in final 0.3% DMSO were pre-incubated with cells for 1 hour prior to stimulation with 300 ng/mL LPS. Cytokine production in cell supernatant was measured at 5 hours for TNFα and IL8 production, and for 16 hours for IL8 production and assessment of cell viability.

Assay [3] concerns THP-1 cells. In words: LPS-induced cytokine production assay, IL8. In kind it is cell-based. As to conditions: Homo sapiens, 300 ng/mL LPS, 16 hours, read-out: IL-8 (16 h). As for the experimental part:
as §1, §2

As for `CN[C@H]1CC[C@H](Nc2ncnc3sc4ccccc4c23)CC1` [I-9, (1r,4r)-N1-(benzo[4,5]thieno[2,3-d]pyrimidin-4-yl)-N4-methylcyclohexane-1,4-diamine], the IC50 in assay [1] is 100 to 1000 nM; in assay [2] it was no less than 1000 nM; in assay [3], no more than 1000 nM.
